We go through six compounds from ChEMBL document CHEMBL1914371, “Development of a bivalent dopamine D₂ receptor agonist” (J Med Chem, 2011).

One assay deals with D(1A) dopamine receptor (Sus scrofa, UniProt P50130). The assay is described as follows: Displacement of [3H]SCH 23390 from pig dopamine D1 receptor in striatal membrane. The class given is cell membranes, Striatum. On the technique in general: Loss of bound radioactivity is the signal in a displacement assay; it reports binding, not function.
In assay [1] the target is T1, D(2) dopamine receptor (Homo sapiens, UniProt P14416). The assay can be described thus: Displacement of [3H]spiperone from human DRD2 Long receptor expressed in chinese hamster CHO cells by radioligand binding assay. Format: cell-based.
For assay [2], the target named is T1, D(2) dopamine receptor. The assay is described as follows: Displacement of [3H]spiperone from human DRD2 short receptor expressed in chinese hamster CHO cells by radioligand binding assay. Format: cell-based.
Another assay deals with D(3) dopamine receptor (Homo sapiens, UniProt P35462). The assay can be described thus: Displacement of [3H]spiperone from human dopamine D3 receptor expressed in chinese hamster CHO cells by radioligand binding assay. The class given is cell-based.
The next assay has as its target T2, D(4) dopamine receptor (Homo sapiens, UniProt P21917).
T2 sequence (P21917 whole entry): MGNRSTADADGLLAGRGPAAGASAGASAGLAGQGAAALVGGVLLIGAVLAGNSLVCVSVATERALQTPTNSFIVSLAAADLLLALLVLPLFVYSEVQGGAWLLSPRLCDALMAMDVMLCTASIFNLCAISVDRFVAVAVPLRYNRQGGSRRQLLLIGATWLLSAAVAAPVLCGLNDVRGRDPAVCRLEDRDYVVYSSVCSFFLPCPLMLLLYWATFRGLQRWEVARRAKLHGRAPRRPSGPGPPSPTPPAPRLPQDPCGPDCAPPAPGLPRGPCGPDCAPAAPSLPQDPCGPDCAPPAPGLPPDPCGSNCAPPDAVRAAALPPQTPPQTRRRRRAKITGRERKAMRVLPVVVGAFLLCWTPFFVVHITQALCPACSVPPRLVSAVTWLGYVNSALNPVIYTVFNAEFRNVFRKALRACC
The assay can be described thus: Displacement of [3H]spiperone from human dopamine D4.4 receptor expressed in chinese hamster CHO cells by radioligand binding assay. Format: cell-based.

Assay [3] deals with T1, D(2) dopamine receptor. The assay is described as follows: Antagonist activity at DRD2 Long receptor expressed in CHO cells assessed as […] of forskolin-stimulated cAMP accumulation by bioluminescence assay relative to quinpirole. The class given is functional, cell-based. (In general: Cyclic AMP is a second messenger, typically raised through Gs and lowered through Gi signalling.)

Assay [4] deals with T1, D(2) dopamine receptor. The assay can be described thus: Partial agonist activity at DRD2 Long receptor expressed in CHO cells assessed as inhibition of forskolin-stimulated cAMP accumulation by bioluminescence assay relative to quinpirole. The class given is functional, cell-based.
Assay [5] has as its target T1, D(2) dopamine receptor. The assay can be described thus: Partial agonist activity at DRD2 Long receptor expressed in CHO cells assessed as inhibition of forskolin-stimulated cAMP accumulation by bioluminescence assay. Format: functional, cell-based.
Assay [6] deals with T1, D(2) dopamine receptor. The assay is described as follows: Agonist activity at DRD2 Long receptor expressed in CHO cells assessed as inhibition of forskolin-stimulated cAMP accumulation by bioluminescence assay. The class given is functional, cell-based.

D(3) dopamine receptor, sequence (P35462 whole entry): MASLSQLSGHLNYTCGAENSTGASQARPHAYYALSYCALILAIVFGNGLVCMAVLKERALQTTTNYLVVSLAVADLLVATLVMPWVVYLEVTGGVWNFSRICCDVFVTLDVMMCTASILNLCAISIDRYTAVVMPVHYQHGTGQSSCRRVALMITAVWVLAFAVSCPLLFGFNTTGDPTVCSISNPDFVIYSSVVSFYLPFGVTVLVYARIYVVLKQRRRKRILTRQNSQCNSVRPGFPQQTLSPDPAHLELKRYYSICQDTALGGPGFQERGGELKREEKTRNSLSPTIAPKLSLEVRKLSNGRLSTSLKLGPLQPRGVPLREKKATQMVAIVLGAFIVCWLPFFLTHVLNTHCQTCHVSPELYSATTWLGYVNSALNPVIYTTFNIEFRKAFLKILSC
T1 sequence (P14416 whole entry): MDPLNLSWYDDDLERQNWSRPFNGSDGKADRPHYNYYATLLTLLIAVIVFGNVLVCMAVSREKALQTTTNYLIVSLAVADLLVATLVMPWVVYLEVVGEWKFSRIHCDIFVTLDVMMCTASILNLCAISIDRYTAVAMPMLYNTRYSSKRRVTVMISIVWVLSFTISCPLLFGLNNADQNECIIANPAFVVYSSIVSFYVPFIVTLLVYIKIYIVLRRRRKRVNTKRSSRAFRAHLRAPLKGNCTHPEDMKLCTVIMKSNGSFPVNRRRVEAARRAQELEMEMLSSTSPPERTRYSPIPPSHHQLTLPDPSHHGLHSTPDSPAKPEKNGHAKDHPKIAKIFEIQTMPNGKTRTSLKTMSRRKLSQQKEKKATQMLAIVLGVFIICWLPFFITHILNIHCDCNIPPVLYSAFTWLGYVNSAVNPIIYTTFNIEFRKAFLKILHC
D(1A) dopamine receptor, sequence (P50130 whole entry): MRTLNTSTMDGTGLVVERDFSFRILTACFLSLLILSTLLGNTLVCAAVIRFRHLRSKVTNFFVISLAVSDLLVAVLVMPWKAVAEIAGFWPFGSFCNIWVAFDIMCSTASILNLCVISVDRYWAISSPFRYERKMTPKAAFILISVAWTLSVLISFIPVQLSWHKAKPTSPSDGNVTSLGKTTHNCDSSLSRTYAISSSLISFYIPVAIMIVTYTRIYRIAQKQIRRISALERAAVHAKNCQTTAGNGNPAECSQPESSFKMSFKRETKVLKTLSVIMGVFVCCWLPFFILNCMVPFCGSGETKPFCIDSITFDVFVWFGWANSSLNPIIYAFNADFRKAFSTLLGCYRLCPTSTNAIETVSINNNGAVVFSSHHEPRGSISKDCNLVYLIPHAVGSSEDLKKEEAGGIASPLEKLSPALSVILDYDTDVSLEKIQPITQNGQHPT

With `CCCN(CCCCNC(=O)c1ccc(OCCCc2cn(CCCCCCCCn3cc(CCCOc4ccc(C(=O)NCCCCN5CCN(c6ccccc6OC)CC5)cc4OC)nn3)nn2)c(OC)c1)C1Cc2ccccc2C1`, the Ki (in general, a measure of affinity in units of concentration, obtained from inhibition or displacement) on D(1A) dopamine receptor worked out at 200 nM; at D(2) dopamine receptor [1], 25 nM; at D(2) dopamine receptor [2], 17 nM; on D(3) dopamine receptor it was 2 nM; on D(4) dopamine receptor, 40 nM. Also, the Efficacy at D(2) dopamine receptor [3] was below 3%.
Turning to `CCCN(CCCCNC(=O)c1ccc(OCCCc2cn(CCCCCCCCn3cc(CCCOc4ccc(CN5CCN(c6ccccc6OC)CC5)cc4OC)nn3)nn2)c(OC)c1)C1Cc2ccccc2C1`, the Efficacy on D(2) dopamine receptor [4] is 13%. The Ki on D(1A) dopamine receptor came to 330 nM; on D(2) dopamine receptor [1], 14 nM; on D(2) dopamine receptor [2] it was 8.8 nM; on D(3) dopamine receptor, 1.2 nM; on D(4) dopamine receptor, 22 nM. Also, at D(2) dopamine receptor [5], the EC50 (as a rule, the concentration at which the effect is half-maximal) stood at 380 nM.
For the compound `COc1cc(C(=O)NCCCCN2CCN(c3ccccc3OC)CC2)ccc1OCCCc1cn(CCCCCCCCn2cc(CCCOc3ccc(C(=O)NCCCCN4CCN(c5ccccc5OC)CC4)cc3OC)nn2)nn1`, the Ki on D(1A) dopamine receptor came to 2800 nM; at D(2) dopamine receptor [1] it was 110 nM; at D(2) dopamine receptor [2], 110 nM; at D(3) dopamine receptor, 12 nM; on D(4) dopamine receptor, 660 nM.
As to `CCCCn1cc(CCCOc2ccc(C(=O)NCCCCN3CCN(c4ccccc4OC)CC3)cc2OC)nn1`, the Ki at D(1A) dopamine receptor came out at 1200 nM; on D(2) dopamine receptor [1] it was 17 nM; on D(2) dopamine receptor [2], 12 nM; on D(3) dopamine receptor it was 2 nM; at D(4) dopamine receptor, 84 nM.
As for `CCCCn1cc(CCCOc2ccc(C(=O)NCCCCN(CCC)C3Cc4ccccc4C3)cc2OC)nn1`, the Ki was 6000 nM at D(1A) dopamine receptor; 12 nM at D(2) dopamine receptor [1]; 4.1 nM on D(2) dopamine receptor [2]; 0.71 nM on D(3) dopamine receptor; 42 nM on D(4) dopamine receptor. The EC50 on D(2) dopamine receptor [6] is 13 nM.
Regarding `CCCN(CCCCNC(=O)c1ccc(OCCCc2cn(CCCCCCCCn3cc(CCCOc4ccc(C(=O)NCCCCN(CCC)C5Cc6ccccc6C5)cc4OC)nn3)nn2)c(OC)c1)C1Cc2ccccc2C1`, the Ki on D(1A) dopamine receptor came to 510 nM; on D(2) dopamine receptor [1], 16 nM; at D(2) dopamine receptor [2] it was 16 nM; at D(3) dopamine receptor it was 1.8 nM; on D(4) dopamine receptor, 34 nM. The EC50 at D(2) dopamine receptor [6] was 440 nM.
